# Assays:
# [1] = test system: morningglory; experiment: Test A preemergence; format: in vivo, Ipomoea spp.; conditions: preemergence; for Morningglory plant response rating (0 to 100 scale): visual injury approx. 10 days after treatment
# Method in brief: (§1)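 Both timings tested concurrently in loam/sand soil: preemergence by directed soil spray, postemergence on plants of 2–10 cm at the one- to two-leaf stage. Greenhouse holding period was approximately 10 days before visual injury assessment (0–100, 0 = no effect).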
# [2] = test system: barnyardgrass; experiment: Test A postemergence; format: in vivo, Echinochloa crus-galli
# Method in brief: as §1
# [3] = test system: ducksalad; experiment: Test B flood; format: in vivo, Heteranthera limosa; conditions: 250 g ai/ha, visual rating on 0 to 100 scale (0 no effect, 100 complete control), 13 to 15 days
# Method in brief: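 At two leaves, seedlings received the test compound via the paddy water, pots having been flooded 3 cm over the soil surface and kept so. Greenhouse-held for 13 to 15 days, then judged by eye against controls on a scale running 0 (no effect) to 100 (complete control).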
# [4] = test system: blackgrass; experiment: Test C preemergence; format: in vivo, Alopecurus myosuroides
# Excerpt: (§2) Seeds of plant species selected from blackgrass (Alopecurus myosuroides), ryegrass, Italian (Italian ryegrass, Lolium multiflorum), wheat (winter wheat, Triticum aestivum), galium (catchweed bedstraw, Galium aparine), corn (Zea mays), crabgrass, large (large crabgrass, Digitaria sanguinalis), foxtail, giant (giant foxtail, Setaria faberii), johnsongrass (Sorghum halepense), lambsquarters (Chenopodium album), morningglory (Ipomoea coccinea), nutsedge, yellow (yellow nutsedge, Cyperus esculentus), pigweed (redroot pigweed, Amaranthus retroflexus), ragweed (common ragweed, Ambrosia elation), soybean (Glycine max), barnyardgrass (Echinochloa crus-galli), oilseed rape (Brassica napus), waterhemp (common waterhemp, Amaranthus rudis), oat, wild (wild oat, Avena fatua), kochia (Kochia scoparia), Surinam grass (Brachiaria decumbens), foxtail, green (green foxtail, Setaria viridis), goosegrass (Eleusine indica), bromegrass, downy (downy bromegrass, Bromus tectorum), nightshade (eastern black nightshade, Solanum ptycanthum), cocklebur (common cocklebur, Xanthium strumarium), cupgrass, woolly (woolly cupgrass, Eriochloa villosa), bermudagrass (Cynodon dactylon), sunflower, (common oilseed sunflower, Helianthus annuus), Russian thistle (Salsola kali), and velvetleaf (Abutilon theophrasti) were planted into a blend of loam soil and sand and treated preemergence with test chemicals formulated in a non-phytotoxic solvent mixture which included a surfactant.
# (§3) At the same time, plants selected from these crop and weed species and also chickweed (common chickweed, Stellaria media), canarygrass (littleseed canarygrass, Phalaris minor), and deadnettle (henbit deadnettle, Lamium amplexicaule), were planted in pots containing Redi-Earth® planting medium (Scotts Company, 14111 Scottslawn Road, Marysville, Ohio 43041) comprising spaghnum peat moss, vermiculite, wetting agent and starter nutrients and treated with postemergence applications of test chemicals formulated in the same manner. Plants ranged in height from 2 to 18 cm (1- to 4-leaf stage) for postemergence treatments. Treated plants and controls were maintained in a greenhouse for 13 to 15 days, after which time all species were compared to controls and visually evaluated. Plant response ratings, summarized in Table C, are based on a scale of 0 to 100 where 0 is no effect and 100 is complete control. A dash (-) response means no test result.
# [5] = test system: johnsongrass; experiment: Test C preemergence; format: in vivo, Sorghum halepense
# Method in brief: (§4)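 Visual control ratings on a 0–100 scale (100 = complete control) made against untreated controls after 13 to 15 days in greenhouse. Compounds applied in surfactant-containing solvent mixture, either preemergence to loam/sand-sown seeds or postemergence to 1- to 4-leaf plants (2–18 cm) in peat medium.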
# [6] = test system: lambsquarters; experiment: Test C preemergence; format: in vivo, Chenopodium album
# Excerpt: as §2, §3
# [7] = test system: soybean; experiment: Test C preemergence; format: in vivo, Glycine max
# Method in brief: as §4
# [8] = test system: barnyardgrass; experiment: Test C preemergence; format: in vivo, Echinochloa crus-galli
# Excerpt: as §2, §3
# [9] = 500 g ai/ha, visual injury after approx. 10 days, 0 to 100 scale (0 no effect, 100 complete control)
# [10] = Postemergence, 500 g ai/ha, 0 to 100 scale (0 no effect, 100 complete control)
# [11] = postemergence, 125 g ai/ha, about 10 days, visual rating on 0 to 100 scale (0 no effect, 100 complete control)
# [12] = preemergence, 31 g ai/ha, visual rating, scale 0 to 100 (0 no effect, 100 complete control), 13 to 15 days
# [13] = preemergence, 62 g ai/ha, scale 0 to 100 (0 no effect, 100 complete control), 13 to 15 days
# [14] = preemergence, 125 g ai/ha, 13 to 15 days, scale 0 to 100, 0 = no effect, 100 = complete control
# [15] = preemergence, 250 g ai/ha, scale 0 to 100, 0 is no effect, 100 is complete control
# [16] = Preemergence, 4 g ai/ha, scale 0 to 100
# [17] = Preemergence, 8 g ai/ha, scale 0 to 100
# [18] = Preemergence, 16 g ai/ha, scale 0 to 100
Compound,Morningglory plant response rating (0 to 100 scale) ([1]; 125 g ai/ha),"Morningglory plant response rating [1, 9]","Barnyardgrass plant response rating [2, 10]","Barnyardgrass plant response rating [2, 11]","Plant response rating, Ducksalad [3]","Blackgrass plant response rating [4, 12]","Blackgrass plant response rating [4, 13]","Plant response rating, Blackgrass [4, 14]","Johnsongrass plant response rating [5, 12]","Johnsongrass plant response rating [5, 13]","Plant response rating, Johnsongrass [5, 14]","Lambsquarters plant response rating [6, 12]","Lambsquarters plant response rating [6, 13]","Plant response rating, Lambsquarters [6, 14]","Soybean plant response rating [7, 12]","Soybean plant response rating [7, 13]","Plant response rating, Soybean [7, 14]","Barnyardgrass plant response rating [8, 12]","Barnyardgrass plant response rating [8, 13]","Plant response rating, Barnyardgrass [8, 14]",also measured
O=C(NC1CC1)c1cc(CCF)n(Cc2ccnc(C(F)(F)F)c2)n1 [Compound 176],80,100,90,60,100,5,5,90,0,20,65,80,98,100,30,75,98,25,100,100,"Blackgrass plant response rating [4, 15]: 90; Johnsongrass plant response rating [5, 15]: 85; Lambsquarters plant response rating [6, 15]: 100; Soybean plant response rating [7, 15]: 98; Barnyardgrass plant response rating [8, 15]: 100"
O=C(NCC(F)(F)F)c1cc(CCF)n(Cc2ccnc(C(F)(F)F)c2)n1 [Compound 175],100,100,90,70,100,30,90,90,0,35,70,98,100,100,30,98,98,80,80,100,"Blackgrass plant response rating [4, 15]: 90; Johnsongrass plant response rating [5, 15]: 100; Lambsquarters plant response rating [6, 15]: 100; Soybean plant response rating [7, 15]: 98; Barnyardgrass plant response rating [8, 15]: 100"
CCOc1cc(C(=O)NCC(F)(F)F)nn1Cc1cc(C(F)(F)F)nn1C [Compound 140],,100,90,70,95,50,,,25,,,75,,,25,,,,,,"Morningglory plant response rating ([1]; 125 g ai/ha, visual injury, 0 to 100 scale, approx. 10 days): 80; Plant response rating, Blackgrass [4, 16]: 0; Plant response rating, Blackgrass [4, 17]: 0; Plant response rating, Blackgrass [4, 18]: 5; Plant response rating, Johnsongrass [5, 16]: 20; Plant response rating, Johnsongrass [5, 17]: 5; Plant response rating, Johnsongrass [5, 18]: 5; Plant response rating, Lambsquarters [6, 16]: 5; Plant response rating, Lambsquarters [6, 17]: 55; Plant response rating, Lambsquarters [6, 18]: 40; Plant response rating, Soybean [7, 16]: 10; Plant response rating, Soybean [7, 17]: 5; Plant response rating, Soybean [7, 18]: 5; Plant response rating, Barnyardgrass [8, 16]: 0; Plant response rating, Barnyardgrass [8, 17]: 5; Plant response rating, Barnyardgrass [8, 18]: 30; Barnyardgrass plant response rating ([8]; preemergence, 31 g ai/ha, scale 0 to 100 (0 no effect, 100 complete control), 13 to 15 days): 80"
CCNC(=O)c1cc(CCF)n(Cc2ccnc(C(F)(F)F)c2)n1 [Compound 178],80,100,80,70,95,5,30,85,0,5,25,80,100,100,5,40,75,10,60,100,"Plant response rating, Blackgrass [4, 18]: 0; Plant response rating, Johnsongrass [5, 18]: 0; Plant response rating, Lambsquarters [6, 18]: 65; Plant response rating, Soybean [7, 18]: 5; Plant response rating, Barnyardgrass [8, 18]: 0"
CCCc1cc(C(=O)NOC(C)C)nn1Cc1cc(C(F)(F)F)nn1C [Compound 203],10,,80,40,95,30,50,85,0,0,40,75,100,100,5,5,35,35,98,100,"Blackgrass plant response rating [4, 15]: 90; Johnsongrass plant response rating [5, 15]: 55; Lambsquarters plant response rating [6, 15]: 100; Soybean plant response rating [7, 15]: 55; Barnyardgrass plant response rating [8, 15]: 100"

# — patent US20150105252A1, “SUBSTITUTED PYRAZOLES AS HERBICIDES” (E I DU PONT DE NEMOURS AND COMPANY, priority 2013, published 2015)
